We go through two molecules from PubChem BioAssay AID1919013 (Molecular Pharmacology Branch, DTP, NCI, 2023).

Structures are written as SMILES. Where “and” joins values, the source holds several entries; their conditions need not be identical. Identical values can stand only once.

For this assay, the system named is LG0703-F498-PDC complex spheroid growth. The experiment in a line: Anticancer human tumor LG0703-F498-PDC patient-derived lung adenocarcinoma cell line growth inhibition [AhR]. Particulars: for viability, T/C: stronger effect = lower value. In outline:
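Spheroids combined tumor cells with HUVEC endothelial cells and human MSCs as stroma. AhR antagonists were paired with standard or investigational drugs, each dosed in half-log steps down from near clinical Cmax, or from 10 microM where Cmax was unknown.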
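Further: luminescence taken as a proxy for viable cell amount.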
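Wherever viability, T/C is given: percent of DMSO vehicle control where 100% means growth equal to vehicle.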

`O=C(c1cc(Cc2n[nH]c(=O)c3ccccc23)ccc1F)N1CCN(C(=O)C2CC2)CC1` + CC(CO)NC(=O)c1cc(-c2ccc(Cl)cc2)nn(-c2cnn(C)c2)c1=O: the IC50 reads like this: (curve of first compound, second compound 0.1 µM) above 10000 nM; (curve of first compound, second compound 0.316 µM) above 10000 nM; (curve of first compound, second compound 1 µM) above 10000 nM; (curve of first compound, second compound 3.16 µM) above 10000 nM; (curve of first compound, second compound 10 µM) above 10000 nM. The viability, T/C is 95.2% (second compound 0.1 µM, first compound 0.0316 µM); 99.8% (second compound 0.1 µM, first compound 0.1 µM); 94.8% (second compound 0.1 µM, first compound 0.316 µM); 86.6% (second compound 0.1 µM, first compound 1 µM); 95.3% (second compound 0.1 µM, first compound 3.16 µM); 70.4% (second compound 0.1 µM, first compound 10 µM). Further, the viability, T/C runs as follows: (second compound 0.316 µM, first compound 0.0316 µM) 96.2%; (second compound 0.316 µM, first compound 0.1 µM) 98.4%; (second compound 0.316 µM, first compound 0.316 µM) 87.5%; (second compound 0.316 µM, first compound 1 µM) 82.4%; (second compound 0.316 µM, first compound 3.16 µM) 88.8%; (second compound 0.316 µM, first compound 10 µM) 83.1%. Further, the viability, T/C runs as follows: (second compound 1 µM, first compound 0.0316 µM) 93%; (second compound 1 µM, first compound 0.1 µM) 108%; (second compound 1 µM, first compound 0.316 µM) 95.7%; (second compound 1 µM, first compound 1 µM) 74.4%; (second compound 1 µM, first compound 3.16 µM) 86.1%; (second compound 1 µM, first compound 10 µM) 81%. Also, the viability, T/C is 89.3% (second compound 3.16 µM, first compound 0.0316 µM); 91% (second compound 3.16 µM, first compound 0.1 µM); 94.5% (second compound 3.16 µM, first compound 0.316 µM); 74.1% (second compound 3.16 µM, first compound 1 µM); 79% (second compound 3.16 µM, first compound 3.16 µM); 72% (second compound 3.16 µM, first compound 10 µM). Further, the viability, T/C (second compound 10 µM, first compound 0.0316 µM) was 77.4%; the viability, T/C (second compound 10 µM, first compound 0.1 µM) is 78.6%; the viability, T/C (second compound 10 µM, first compound 0.316 µM) is 82.7%; the viability, T/C (second compound 10 µM, first compound 1 µM) is 80%; the viability, T/C (second compound 10 µM, first compound 3.16 µM) was 81.8%; the viability, T/C (second compound 10 µM, first compound 10 µM) was 79.8%.
For `O=C(C=Cn1cnc(-c2cc(C(F)(F)F)cc(C(F)(F)F)c2)n1)NNc1cnccn1`, the viability, T/C (compound 0.00949 µM) was 84.1% and 93.9% and 79.2%; the viability, T/C (compound 0.03 µM) is 83.7% and 79.7% and 62.9%; the viability, T/C (compound 0.0949 µM) is 55.5% and 52% and 41.8%; the viability, T/C (compound 0.3 µM) was 48.2% and 37.7% and 35.7%; the viability, T/C (compound 0.949 µM) was 40.9% and 39.8% and 39.1%; the viability, T/C (compound 3 µM) is 31.4% and 35.3% and 32.7%. For the same molecule, the IC50 (curve of compound) is 215 nM and 109 nM and 60.6 nM.

For orientation: IC50 means the concentration that gives 50% inhibition. Broadly, the viability, T/C is the result in the treated group divided by that in the control group, in per cent.
